# Read-outs that look alike come from different tables or passages of the source.
# Legend:
# GGTase-I = target: T1, GGTase-I (Rattus norvegicus, UniProt P53610+Q04631); assay: In vitro GGTase-I enzyme assay (IC50, kinetics); assay type: biochemical
# T1 construct: purchased JENA BIOSCIENCE
# Experimental: The GGTase-I assay was carried out using RhoA as a substrate protein, GGTase-I (JENA Bioscience) and [3H]geranylgeranyl pyrophosphate. Incubation was for 30 min at 37° C. GGTase-II (or RabGGTase) assay was carried out using YPTI as a substrate protein, GGTase-II (Calbiochem, San Diego, Calif.) plus REP1 (Calbiochem) and [3H]geranylgeranyl pyrophosphate. Incubation was for 30 min at 37° C. FIGS. 20D-20F show the three dimensional structure of GGTase I (D), FTsse (E) and GGTase II (F) which can be obtained from X-ray diffraction studies of protein crystals.
# GGTase-I and FTase activities were determined by following the incorporation of radiolabeled isoprenoid [^3H]-geranylgeranyl or [^3H]-farnesyl into substrate proteins. FTase or GGTase-I (50 nM) were used to initiate reactions containing 0.4 μM of [^3H]-FPP or 0.5 μM of [^3H]-GGPP and 2 μM of MBP-tagged substrates (K-Ras4B for FTase; RhoA for GGTase-I) in 20 μl of buffer {50 mM Tris-HCl (pH 7.5), 10 mM MgCl2, […] and 5 mM DTT}. Inhibitors were added at the indicated concentrations. The final DMSO concentration was 2.5% for all samples.
# Reactions were carried out for 10 min at 30° C. The reaction mixture was spotted onto a filter paper, treated with 10% trichloroacetic acid (TCA) followed by ethanol and acetone washing. The filter was counted using a scintillation counter. Kinetic assays in which the GGPP concentration was varied employed fixed concentrations of GGTase-I and RhoA, and reactions were carried out for 5 min. Similarly, fixed concentrations of GGTase-I and GGPP were used when the amount of RhoA was varied.
# Jurkat cells = assay: Jurkat cell growth inhibition; assay type: cell-based, human
# Experimental: In Table 4 in cell GI50 values for the growth inhibition of Jurkat cells are reported. The GI50 value is the concentration of a test compound needed to produce 50% growth inhibition in the cell type listed. In Table 4 the isolated yield of each synthetic step for the synthesis of corresponding compounds are also reported.
# Panc-1 cells (Pancreatic cancer cell line) and Jurkat cells (T-cell leukemia) were treated with 12.5 μM of P5-H6 or 12.5 μM of mP5-H6a for 72 hours. The cell number was counted as described in Example 5.
# (§1) Cell viability was determined by Cell Counting Kit-8 (CCK-8, Dojindo, Kumamoto, Japan) as described previously (31). Cell viability was calculated relative to the DMSO control. Cell cycle profile was analyzed by flow cytometry as described previously (32).
# K562 cells = assay: K562 cell growth inhibition; assay type: cell-based, human; details: Tables 8-15; no unit printed there
# Experimental: K562 cells are a cell line of human erythroleukemia cells. The K562 cells were treated with P3-E5, P5-H6 or GGTI-298 (a known GGTI compound illustrated in FIG. 27) for 72 hours and then cell number was counted using cell counting kit-8 (Dojindo, Gaithersburg, Md.). Cell viability relative to the DMSO control and the known GGTI compound is plotted in FIG. 23.
# as §1
# [1] = Tables 3, 5, 7, read-out: In vitro (enzyme assay) IC50, GGTase I
# [2] = Homo sapiens, Jurkat, Tables 4, 6, 7, read-out: Jurkat cell GI50
# [3] = Tables 8-15, no unit printed there (Table 7 head: μM unless otherwise specified), read-out: In vitro (GGTase I IC50)
# [4] = Tables 5, 14, read-out: In vitro (enzyme assay) IC50, GGTase I
# [5] = Tables 8-15, no unit printed there, read-out: Jurkat GI50
# [6] = Tables 4, 6, 7, read-out: Jurkat cell GI50
# [7] = Homo sapiens, Jurkat, Tables 8-15, no unit printed there, read-out: Jurkat GI50
structure (smiles),measurement,setting,value
Cc1ccccc1S(=O)(=O)N1[C@@H](c2ccc(Cl)cc2)C(C(=O)N[C@@H](CC(C)C)C(N)=O)=C[C@H]1C(C)(C)C [P61-B02],IC50,GGTase-I; [1],8.1 µM
same,GI50,Jurkat cells; [2],6.58 µM
COC(=O)C(CC(C)C)NC(=O)C1=CCC(c2cccc(Cl)c2)N(S(=O)(=O)c2ccc(Cl)cc2)C1c1cccc(Cl)c1 (centres unmarked) [P67-A05],IC50,GGTase-I; [1],> 20 µM
CC(C)(C)[C@@H]1C=C(C(=O)N[C@@H](Cc2ccccc2)C(N)=O)[C@H](c2ccc(Cl)c(Cl)c2)N1S(=O)(=O)c1ccccc1Br [drawing 167],IC50,GGTase-I; [3],> 20 µM
Cc1ccccc1S(=O)(=O)N1C(c2cccc(Cl)c2)C(C(=O)O)=CC[C@H]1c1ccc(Cl)cc1 (some centres unmarked) [drawing 189],IC50,GGTase-I; [3],0.31 µM
O=C(NC(Cc1ccccc1)C(=O)O)C1=CCC(c2cccc(Cl)c2)N(S(=O)(=O)c2ccc(Cl)cc2)C1c1cccc(Cl)c1 (centres unmarked) [P61-H09],IC50,GGTase-I; [4],0.021 µM
Cc1ccccc1S(=O)(=O)N1[C@@H](c2ccc(Cl)cc2)C(C(=O)O)=C[C@H]1C(C)(C)C [drawing 136],IC50,GGTase-I; [1],0.5 µM
same,GI50,Jurkat cells; [2],20 µM
COC(=O)[C@H](Cc1ccccc1)NC(=O)C1=C[C@@H](C(C)(C)C)N(S(=O)(=O)c2ccccc2C)[C@H]1c1ccc(Cl)cc1 [P61A5],GI50,Jurkat cells; [5],10.5 µM
same,GI50,K562 cells,17 µM
COC(=O)[C@H](Cc1ccccc1)NC(=O)C1=C[C@@H](C(C)(C)C)N(S(=O)(=O)c2ccccc2C)[C@H]1c1ccc(Cl)cc1 [P61-A05],GI50,Jurkat cells; [6],10.5 µM
COC(=O)C(CC(C)C)NC(=O)C1=CCC(c2cccc(Br)c2)N(S(=O)(=O)c2ccc(Cl)cc2)C1c1cccc(Cl)c1 (centres unmarked) [P67-A07],IC50,GGTase-I; [1],> 20 µM
CC(C)C[C@H](NC(=O)C1=CC[C@@H](c2cccc(Cl)c2)N(S(=O)(=O)c2ccc(Br)cc2)[C@H]1c1cccc(Cl)c1)C(N)=O [drawing 209],IC50,GGTase-I; [3],> 20 µM
Cc1ccccc1S(=O)(=O)N1[C@@H](c2ccc(Cl)cc2)C(C(=O)O)=C[C@H]1C(C)CC(C)(C)C (some centres unmarked),IC50,GGTase-I; [3],3.4 µM
Cc1ccccc1S(=O)(=O)N1[C@@H](c2ccc(Cl)cc2)C(C(=O)N[C@@H](Cc2ccccc2)C(=O)O)=C[C@H]1C(C)(C)C [P61-A08],IC50,GGTase-I; [1],1.4 µM
same,GI50,Jurkat cells; [2],13 µM
CC(C)C[C@H](NC(=O)C1=CC[C@@H](c2cccc(Cl)c2)N(S(=O)(=O)c2ccc(Br)cc2)C1c1cccc(Br)c1)C(N)=O (some centres unmarked) [P61-C10],GI50,Jurkat cells; [6],2.22 µM
same,GI50,Jurkat cells; [5],2.22 µM
same,GI50,K562 cells,4.37 µM
Cc1ccccc1S(=O)(=O)N1[C@@H](c2cccc(Cl)c2)C(C(=O)N[C@@H](CC(C)C)C(N)=O)=CC[C@H]1c1ccc(Cl)cc1,IC50,GGTase-I; [3],> 50 µM
CC(C)CC(NC(=O)C1=CCC(c2cccc(Br)c2)N(S(=O)(=O)c2ccc(Cl)cc2)C1c1cccc(Cl)c1)C(=O)O (centres unmarked) [P61-G08],IC50,GGTase-I; [4],0.06 µM
Cc1ccccc1S(=O)(=O)N1[C@@H](c2ccc(Cl)cc2)C(C(=O)O)=C[C@H]1C(C)(C)C [drawing 143],IC50,GGTase-I; [3],0.5 µM
same,GI50,Jurkat cells; [7],20 µM
Cc1ccccc1S(=O)(=O)N1[C@@H](c2ccc(Cl)cc2)C(C(=O)N[C@@H](Cc2ccccc2)C(N)=O)=C[C@H]1C(C)(C)C [P61-A06],GI50,Jurkat cells; [2],4.89 µM
CC(C)CC(NC(=O)C1=CCC(c2cccc(Br)c2)N(S(=O)(=O)c2ccc(F)cc2)C1c1cccc(Cl)c1)C(=O)O (centres unmarked) [P61-H06],IC50,GGTase-I; [4],0.21 µM
same,GI50,"Jurkat cells; Homo sapiens, Jurkat, Table 6, read-out: Jurkat cell GI50",0.21 µM
COC(=O)[C@H](CC(C)C)NC(=O)C1=CC[C@@H](c2ccc(Cl)cc2)N(S(=O)(=O)c2ccccc2C)[C@H]1c1cccc(Cl)c1 [P61-E07],IC50,GGTase-I; [1],> 20 µM
same,GI50,Jurkat cells; [2],3.53 µM
COC(=O)C(CC(C)C)NC(=O)C1=CCC(c2cccc(Br)c2)N(S(=O)(=O)c2ccc(F)cc2)C1c1cccc(Cl)c1 (centres unmarked) [P67-H11],IC50,GGTase-I; [1],> 20 µM
NC(=O)[C@H](Cc1ccccc1)NC(=O)C1=CC[C@@H](c2cccc(Br)c2)N(S(=O)(=O)c2ccc(Cl)cc2)C1c1cccc(Cl)c1 (some centres unmarked) [P61-F11],IC50,GGTase-I; [4],0.3 µM
O=C(NC(Cc1ccccc1)C(=O)O)C1=CCC(c2cccc(Cl)c2)N(S(=O)(=O)c2ccc(Br)cc2)C1c1cccc(Cl)c1 (centres unmarked) [P61-G05],IC50,GGTase-I; [4],0.15 µM
COC(=O)C(CC(C)C)NC(=O)C1=CCC(c2cccc(Cl)c2)N(S(=O)(=O)c2ccc(Br)cc2)C1c1cccc(Br)c1 (centres unmarked) [P67-A04],IC50,GGTase-I; [1],> 20 µM
same,GI50,Jurkat cells; [2],8 µM
CC(C)(C)[C@@H]1C=C(C(=O)N[C@@H](Cc2ccccc2)C(N)=O)[C@H](c2ccc(Cl)c(Cl)c2)N1S(=O)(=O)c1ccccc1Br [P61-E03],IC50,GGTase-I; [1],> 20 µM
Cc1ccccc1S(=O)(=O)N1[C@@H](c2ccc(Cl)cc2)C(C(=O)N[C@@H](Cc2ccccc2)C(N)=O)=C[C@H]1C(C)(C)C [P61-B07],GI50,Jurkat cells; [6],6.1 µM
NC(=O)[C@H](Cc1ccccc1)NC(=O)C1=CC[C@@H](c2cccc(Br)c2)N(S(=O)(=O)c2ccc(Cl)cc2)C1c1cccc(Cl)c1 (some centres unmarked) [P61-G02],IC50,GGTase-I; [4],0.45 µM
CC(C)(C)[C@@H]1C=C(C(=O)O)[C@H](c2ccc(Br)cc2)N1S(=O)(=O)c1ccccc1Cl,IC50,GGTase-I; [3],0.349 µM
CC(C)CC(NC(=O)C1=CCC(c2cccc(Cl)c2)N(S(=O)(=O)c2ccc(Cl)cc2)C1c1cccc(Cl)c1)C(=O)O (centres unmarked) [P61-H08],IC50,GGTase-I; [4],0.18 µM
Cc1ccccc1S(=O)(=O)N1[C@@H](c2ccc(Cl)c(Cl)c2)C(C(=O)O)=C[C@H]1C(C)(C)C,IC50,GGTase-I; [3],0.363 µM
CCOC(=O)C1=C[C@@H](C(C)(C)C)N(S(=O)(=O)c2ccccc2C)[C@H]1c1ccc(Cl)cc1,IC50,GGTase-I; [1],> 50 µM
same,GI50,Jurkat cells; [2],18.5 µM
COC(=O)[C@H](Cc1ccccc1)NC(=O)CCOCC1=C[C@@H](C(C)(C)C)N(S(=O)(=O)c2ccccc2C)[C@H]1c1ccc(Cl)cc1,IC50,GGTase-I; [3],> 20 µM
same,GI50,Jurkat cells; [7],5.1 µM
CC(C)C[C@H](NC(=O)C1=CC[C@@H](c2cccc(Br)c2)N(S(=O)(=O)c2ccc(Cl)cc2)C1c1cccc(Cl)c1)C(N)=O (some centres unmarked) [P61-C06],IC50,GGTase-I; [1],39.1 µM
same,GI50,Jurkat cells; [2],3.15 µM
CC(C)C[C@H](NC(=O)C1=CC[C@@H](c2cccc(Cl)c2)N(S(=O)(=O)c2ccc(Br)cc2)[C@H]1c1cccc(Cl)c1)C(N)=O [P61-E08],IC50,GGTase-I; [1],> 20 µM
COC(=O)C(CC(C)C)NC(=O)C1=CCC(c2cccc(Cl)c2)N(S(=O)(=O)c2ccc(Br)cc2)C1c1cccc(Cl)c1 (centres unmarked) [P67-A09],IC50,GGTase-I; [1],> 20 µM
same,GI50,Jurkat cells; [2],3.81 µM
CONC(=O)C1=C[C@@H](C(C)(C)C)N(S(=O)(=O)c2ccccc2C)[C@H]1c1ccc(Cl)cc1,IC50,GGTase-I; [1],3.8 µM
same,GI50,Jurkat cells; [2],12.6 µM
O=C(NC(Cc1ccccc1)C(=O)O)C1=CCC(c2cccc(Br)c2)N(S(=O)(=O)c2ccc(Cl)cc2)C1c1cccc(Cl)c1 (centres unmarked) [P61-G07],IC50,GGTase-I; [4],0.07 µM
Cc1ccccc1S(=O)(=O)N1C(c2cccc(Cl)c2)C(C(N)=O)=CC[C@H]1c1ccc(Cl)cc1 (some centres unmarked),IC50,GGTase-I; [3],> 20 µM
same,GI50,Jurkat cells; [7],5.36 µM
NC(=O)[C@H](Cc1ccccc1)NC(=O)C1=CC[C@@H](c2cccc(Cl)c2)N(S(=O)(=O)c2ccc(Br)cc2)C1c1cccc(Br)c1 (some centres unmarked) [P61-E09],IC50,GGTase-I; [1],> 20 µM
same,IC50,GGTase-I; [3],> 20 µM
CC(C)(C)[C@@H]1C=C(C(=O)O)[C@H](c2ccc(Cl)c(Cl)c2)N1S(=O)(=O)c1ccccc1Br,IC50,GGTase-I; [3],0.348 µM
COC(=O)[C@H](CC(C)C)NC(=O)C1=CC[C@@H](c2ccc(Cl)cc2)N(S(=O)(=O)c2ccccc2C)C1c1cccc(Cl)c1 (some centres unmarked),IC50,GGTase-I; [3],> 50 µM
same,GI50,Jurkat cells; [7],6.1 µM
Cc1ccccc1S(=O)(=O)N1C(c2cccc(Cl)c2)C(C(=O)O)=CC[C@H]1c1ccc(Cl)cc1 (some centres unmarked) [drawing 183],IC50,GGTase-I; [3],0.31 µM
same,GI50,Jurkat cells; [7],20 µM
CC(C)C[C@H](NC(=O)C1=CC[C@@H](c2cccc(Br)c2)N(S(=O)(=O)c2ccc(Cl)cc2)[C@H]1c1cccc(Cl)c1)C(N)=O,IC50,GGTase-I; [3],39.1 µM
Cc1ccccc1S(=O)(=O)N1C(c2cccc(Cl)c2)C(C(=O)N[C@@H](CC(C)C)C(N)=O)=CC[C@H]1c1ccc(Cl)cc1 (some centres unmarked) [P61-C05],IC50,GGTase-I; [1],> 50 µM
same,GI50,Jurkat cells; [2],6.1 µM
O=C(N[C@@H](Cc1ccccc1)C(=O)O)C1=CC[C@@H](c2cccc(Br)c2)N(S(=O)(=O)c2ccc(F)cc2)[C@H]1c1cccc(Cl)c1 [P61-H07],IC50,GGTase-I; [4],0.011 µM
CC(C)CC(NC(=O)C1=CCC(c2cccc(Cl)c2)N(S(=O)(=O)c2ccc(Br)cc2)C1c1cccc(Cl)c1)C(=O)O (centres unmarked) [P61-E11],IC50,GGTase-I; [4],0.5 µM

# Source: patent publication US8815935B2, “Inhibitors of protein prenyltransferases” (The Regents of the University of California, priority 2008, dated 2014)
